Source: the NIST ThermoML archive (doi:10.1016/j.fluid.2017.03.012)
± gives the expanded uncertainty stated by the source.

Key:
[1] = Molar enthalpy of transition or fusion; conditions: DSC
[2] = for Normal melting temperature: DTA; for Triple point temperature: Crystal 2, DSC

Molar enthalpy of transition or fusion ([1]; Crystal) [kcal/mol] | Normal melting temperature ([2]; Crystal) [°C] | Molar enthalpy of transition or fusion ([1]; Crystal 1) [kcal/mol] | Molar enthalpy of transition or fusion ([1]; Crystal 2) [kcal/mol] | Normal melting temperature ([2]; Crystal 1) [°C] | Triple point temperature [2] [K] | SMILES
17 ± 2.08 | 63.8 ± 0.53 |  |  |  |  | CCCCCCCCCCCCCCCCCCCCO [1-eicosanol]
 |  | 12.4 ± 1.51 | 6.54 ± 0.789 | 56.2 ± 0.53 | 319.35 ± 0.81 | CCCCCCCCCCCCCCCCCCO [1-octadecanol]
17.3 ± 2.1 | 35.03 ± 0.53 |  |  |  |  | CCCCCCCCCCCCCCCCCCCC [eicosane]
 |  | 14.6 ± 1.77 | 8.08 ± 0.98 | 48.06 ± 0.53 | 319.35 ± 0.81 | CCCCCCCCCCCCCCCCCCCCCCCC [tetracosane]

SMILES | Molar enthalpy of transition or fusion ([1]; Crystal) [kcal/mol] | Normal melting temperature ([2]; Crystal) [°C] | Molar enthalpy of transition or fusion ([1]; Crystal 1) [kcal/mol] | Molar enthalpy of transition or fusion ([1]; Crystal 2) [kcal/mol] | Normal melting temperature ([2]; Crystal 1) [°C] | Triple point temperature [2] [K]
c1ccc(-c2ccccc2)cc1 [biphenyl] | 4.66 ± 0.574 | 68.0 ± 0.53 |  |  |  | 
